Reference: PMC5855875, “Teixobactin analogues reveal enduracididine to be non-essential for highly potent antibacterial activity and lipid II binding” (Chemical Science, 2017)
Values after ≈ are worked out from the molar mass of the structure shown. Bridge positions count the residues as written; N and C are the ends. Square brackets hold non-standard residues; d marks the D form. Peptide text beside a SMILES is read from it. d(aIle) = CC[C@H](C)[C@@H](N)C(=O)O; dNMeF = CN[C@H](Cc1ccccc1)C(=O)O

Key:
[1] = tested on: MRSA 2: MRSA DR 42412 (sputum); assay: microbe, parasite or virus in culture
M. smegmatis ATCC 607 = assay: microbe, parasite or virus in culture; conditions: ATCC 607, 72 h
Experimental: were grown in Mueller Hinton broth (Oxoid) in triplicate. All incubations were at 37°C. Dilutions were carried out in triplicate. 100 µl of autoclaved Mueller Hinton broth was added to wells 2-12 in a 96-well plate. 200 µl of the peptide was added to well one at a concentration of 256 µg/mL. 100µl of peptide in well one was taken up and pipetted into well two. The mixture was then mixed via pipetting before 100µl was taken up and pipetted into well three. This process was repeated up to well 11. Once […]
peptide present. Thus, the concentrations (in µg/mL) were: 256, 128, 64, 32, 16, 8, 4, 2, 1, 0.5, 0.25 and no peptide present. Each well was then inoculated with 100µl of bacteria that had been diluted to an […]
This was repeated three times. The 96-well plates were then incubated at 37°C for 24 hours. The MIC was determined to be the lowest concentration at which there was no growth visible. […]
was repeated at an altered initial concentration of 64 µg/ml. Therefore, the new concentrations for MIC […]
Middlebrook 7H9 broth (SIGMA) supplemented to 5% Middlebrook ADC (SIGMA) growth

[2] = NMR titration with geranyl pyrophosphate (lipid II mimic); format: binding
Experimental: In order to evaluate target binding, we have performed the lipid II TLC binding assay[2] with Ala10-teixobactin. This assay provides qualitative binding data of Ala10-teixobactin with lipid II. […] Therefore, in order better understand the target binding of teixobactin analogues in a quantitative manner, extensive NMR studies (Fig. 6) on Ala10-teixobactin and geranyl pyrophosphate were performed.
This can occur due to intermediate exchange on the NMR time-scale, and therefore cooperative binding is not an obvious choice.

[3] = 1H DOSY at each titration point
[4] = tested on: Staphylococcus aureus ATCC 29213; assay: microbe, parasite or virus in culture
MRSA 1: MRSA ATCC 700699 = assay: microbe, parasite or virus in culture
[5] = tested on: MRSA 3: MRSA DM21455 (eye); assay: microbe, parasite or virus in culture
MRSA ATCC 33591 = assay: microbe, parasite or virus in culture; conditions: ATCC 33591, 24 h
VRE 1: VRE ATCC 700802 = assay: organism not typed
VRE 2: VRE ATCC 29212 = assay: organism not typed
[6] = Lipid II TLC binding assay; conditions: peptide : lipid II 2 : 1; 50 mM Tris/HCl, pH 7.5, 30 min, room temperature; three independent experiments
Experimental: X. Complex formation of teixobactin with lipid II and geranyl pyrophosphate Complex formation of teixobactin analogues 8 (Ala10-teixobactin) and 16 (Arg10-teixobactin) with lipid II and geranyl pyrophosphate was performed using TLC as described previously.7 Binding of teixobactin to lipid II and geranyl pyrophosphate was analysed by incubating 30 µL of 2 nmol of each precursor with 2 or 4 nmoles of teixobactin in 50 mM Tris/HCl, pH 7.5, for 30 min at room temperature. Complex formation was analysed by extracting unbound precursors from the reaction mixture with 30 µL n- butanol/6M pyridine acetate (pH 4.2) (2:1; vol/vol) followed by TLC analysis of the organic layer using chloroform/methanol/water/ammonia (88:48:10:1, v/v/v/v) as the solvent and detection of lipid/phosphate containing precursors by phosphomolybdic acid staining. The TLC figures represent the results obtained through thr ee independent experiments.
Figure S76 : Binding of teixobactin analogues 8 (Ala10-teixobactin ) and 16 (Arg10-teixobactin) with lipid II using the protocols described in literature .7 Partial binding is observed when the ratio of lipid II to the analogue is 1:1 (indicated by lighter spots on the TLC) and complete binding is observed when the ratio of lipid II to the analogue is 1:2 in case of analogue 16 and 1:4 in case of analogue 8 (indicated […]
(also on this page, place not known: polyso rbate vancomycin , concentr ation 80 . wer e µ l (10 1-105 10 10 previously n - TL C three S76: (Ala10-teixobactin) literature.7 Lipid II Lipid II: Compound 8 = 1:1 Lipid II: Compound 16 = 1:1 Lipid II: Compound 8 = 1:2 Lipid II: Compound 16 = 1:2 Lipid II: Compound 8 = 1:4)

SMILES: CC[C@H](C)[C@H](NC(=O)[C@@H](Cc1ccccc1)NC)C(=O)N[C@@H](CO)C(=O)N[C@H](CCC(N)=O)C(=O)N[C@@H](C(=O)N[C@H](C(=O)N[C@@H](CO)C(=O)N[C@H]1C(=O)N[C@@H](C)C(=O)N[C@@H](C)C(=O)N[C@@H]([C@@H](C)CC)C(=O)O[C@H]1C)[C@@H](C)CC)[C@@H](C)CC [Compound 8, Ala10-teixobactin] (H-[dNMeF]IS[dQ][d(aIle)]IS[dT]AAI; ester 8-C)
- MIC ([1]; 2: DR 42412 (sputum, 24 h)): 1 μg mL^–1
- MIC (without polysorbate 80) ([1]; 2: DR 42412 (sputum, 24 h)): 4 µg/mL (≈ 3.45 µM)
- MBC ([1]; MRSA 2 (MRSA DR 42412), plated on MHA, 37 °C, 24 h): 4 μg mL^–1
- MIC (with polysorbate 80) ([1]; MRSA 2, MHB containing polysorbate 80 (0.002%, v/v), 37 °C, 24 h): 1 µg/mL (≈ 0.863 µM)
- MIC (M. smegmatis ATCC 607): 1–2 μg mL^–1
- Kd ([2]; 2 Ile Hα, NMR titration of geranyl pyrophosphate): 348 ± 18 µM
- Kd ([2]; 3 Ser Hα, NMR titration of geranyl pyrophosphate): 503 ± 8 µM
- Kd ([2]; 4 D-Gln Hα, NMR titration of geranyl pyrophosphate): 507 ± 2 µM
- Kd ([2]; 5 D-Ile Hα, NMR titration of geranyl pyrophosphate): 483 ± 4 µM
- Kd ([2]; 7 Ser Hα, NMR titration of geranyl pyrophosphate): 125 ± 3 µM
- Kd ([2]; 8 D-Thr Hα, NMR titration of geranyl pyrophosphate): 204 ± 3 µM
- Kd ([2]; 9 Ala Hα, NMR titration of geranyl pyrophosphate): 394 ± 4 µM
- Kd ([2]; 10 Ala Hα, NMR titration of geranyl pyrophosphate): 314 ± 3 µM
- Kd ([2]; 11 Ile Hα, NMR titration of geranyl pyrophosphate): 391 ± 4 µM
- Kd ([2]; Net (Total), overall binding by PCA): 138 ± 5 µM
- aggregation in presence of geranyl pyrophosphate (diffusion coefficient) [3]: no aggregation occurred
- MIC (without polysorbate 80) ([4]; ATCC 29213, 24 h): 4 µg/mL (≈ 3.45 µM)
- MIC (with polysorbate 80) ([4]; S. aureus ATCC 29213, MHB containing polysorbate 80 (0.002%, v/v), 37 °C, 24 h): 1 µg/mL (≈ 0.863 µM)
- MBC ([4]; Staphylococcus aureus ATCC 29213, plated on MHA, 37 °C, 24 h): 2 μg mL^–1
- MIC (MRSA 1: MRSA ATCC 700699; ATCC 700699, 24 h): 4 μg mL^–1
- MIC (without polysorbate 80) (MRSA 1: MRSA ATCC 700699; ATCC 700699, 24 h): 8 µg/mL (≈ 6.9 µM)
- MBC (MRSA 1: MRSA ATCC 700699; MRSA 1 (MRSA ATCC 700699), plated on MHA, 37 °C, 24 h): 16 μg mL^–1
- MIC (with polysorbate 80) (MRSA 1: MRSA ATCC 700699; MRSA 1, MHB containing polysorbate 80 (0.002%, v/v), 37 °C, 24 h, two independent duplicates): 4 µg/mL (≈ 3.45 µM)
- MIC ([5]; 3: DM21455 (eye, 24 h)): 1 μg mL^–1
- MIC (without polysorbate 80) ([5]; 3: DM21455 (eye, 24 h)): 4 µg/mL (≈ 3.45 µM)
- MBC ([5]; MRSA 3 (MRSA DM21455), plated on MHA, 37 °C, 24 h): 2 μg mL^–1
- MIC (with polysorbate 80) ([5]; MRSA 3, MHB containing polysorbate 80 (0.002%, v/v), 37 °C, 24 h): 1 µg/mL (≈ 0.863 µM)
- MIC (MRSA ATCC 33591): 1–2 μg mL^–1
- MIC (VRE 1: VRE ATCC 700802; ATCC 700802, 24 h): 4 μg mL^–1
- MIC (without polysorbate 80) (VRE 1: VRE ATCC 700802; ATCC 700802, 24 h): 8 µg/mL (≈ 6.9 µM)
- MIC (with polysorbate 80) (VRE 1: VRE ATCC 700802; VRE 1, MHB containing polysorbate 80 (0.002%, v/v), 37 °C, 24 h): 4 µg/mL (≈ 3.45 µM)
- MIC (VRE 2: VRE ATCC 29212; ATCC 29212, 24 h): 4 μg mL^–1
- MIC (without polysorbate 80) (VRE 2: VRE ATCC 29212; ATCC 29212, 24 h): 8 µg/mL (≈ 6.9 µM)
- MIC (with polysorbate 80) (VRE 2: VRE ATCC 29212; VRE 2, MHB containing polysorbate 80 (0.002%, v/v), 37 °C, 24 h): 4 µg/mL (≈ 3.45 µM)
- lipid II spot on TLC [6]: a small amount of lipid II was still visible on TLC
